According to patent US8293786B2 (Alltranz Inc., priority 2007, dated 2012):

System: human abdominal skin
Assay: In vitro human skin permeation and skin disposition, flow-through diffusion cells (Example 1)
Assay type: in vitro ADME
Method: Flow through diffusion cells were used for the permeation studies. HEPES-buffered Hanks' balanced salts containing 40% (polyethylene glycol) PEG 400 with gentamicin was used for the receiver compartment. Donor solution was comprised of either 100% propylene glycol (PG) solution or a rubbed in gel formulation. […] Drug accumulation in the skin after a 24 or 36 h diffusion experiment was determined as μmol/g wet tissue weight.
The skin samples used in the following experiments were obtained from abdominal reduction surgery and dermatomed to a thickness of approximately 200 μm. The skin samples used herein were frozen at −20° C. for less than six months.
1 L of receiver fluid was prepared by measuring 1 L of nanopure water into a graduated cylinder. 90% of the water was added to an Erlenmeyer flask. Hanks' salts (1 bottle) were added to the water along with 5.96 g of HEPES and 0.35 g of sodium bicarbonate. The pH of the solution was adjusted with 1 N sodium hydroxide solution to pH 7.4. The remaining water was added and the receiver fluid was filtered through a 0.2μ filter (Millipore, Billerica, Mass.). 50 mg of gentamicin was added to the filtered receiver fluid and 400 mL of the receiver fluid was removed and replaced with 400 mL of PEG 400.
Two different formulations were used for charging the donor compartment. Drugs were made up in either 100% PG or a gel formulation. For the PG solution, approximately 50-120 mg of the appropriate drug was weighed into a glass silanized culture tube. The gel formulation resulted from the mixing of absolute ethanol, nanopure water, IPM, Carbopol® 980, 0.1 N aqueous sodium hydroxide solution and the respective drug.
Dermatomed skin harvested from abdominoplasty, stored at −20° C., was used for the experiments. A PermeGear flow-through (In-Line, Riegelsville, Pa.) diffusion cell system was used for the skin permeation studies.
Diffusion cells were kept at 32° C. with a circulating water bath. Human epidermal skin was arranged in the diffusion cell with stratum corneum (upper layer of skin) facing the donor compartment. Permeation area of the skin was 0.95 cm^2. Data was collected from a human skin donor with three to four diffusion cells per treatment.
Receiver solution was HEPES-buffered Hanks' balanced salts with gentamicin containing 40% PEG 400 at a pH of 7.4 and flow rate was adjusted to 0.8 mL/h. Each cell was charged with 0.050 mL of the respective drug formulation (donor solution) or with 0.035 mL of gel formulation which was rubbed into the skin for 15 sec with a Teflon coated rod. The formulation was applied to ensure complete coverage. Diffusion cells were covered with a cap for the duration of the study.
Samples were collected into scintillation vials in 3 h increments for either 24 h or 36 h. All the samples were stored at 4° C. until extracted. An aliquot (0.5 mL) of the diffusion sample was placed into a silanized HPLC vial and 0.5 mL of acetonitrile was added to the sample, capped and vortexed.
At the end of the experiment, the skin tissue was removed from the diffusion cell, rinsed with nanopure water, and blotted dry with a paper towel. The skin was tape stripped twice using book tape (Scotch™, 3M, St. Paul, Minn.) to remove drug formulation adhering to the tissue surface. The area of skin in contact with the drug was cut out, chopped up and placed in a pre-weighed scintillation vial. Ten mL of acetonitrile was added to the vial and drug was extracted from the skin by shaking at room temperature overnight. The following day a 0.1 mL aliquot was removed and diluted with an additional 0.9 mL of acetonitrile. The diluted sample was added to the silanized HPLC vial for analysis.
At the end of the experiment, a 0.01 mL aliquot of the PG donor solution was removed and added to a scintillation vial containing 10 mL of acetonitrile. The vials were vortexed and then sonicated for 15 min. An aliquot of 1 mL was removed and transferred into a silanized HPLC vial for analysis.

[1] = Table 3, in propylene glycol, CBD high conc.
[2] = Table 3, in propylene glycol, CBD low conc.
[3] = Table 4, in propylene glycol, CBD high conc.
[4] = Table 4, in propylene glycol, CBD low conc.
[5] = Table 5, in propylene glycol, CBD high conc.
[6] = Table 5, in propylene glycol, CBD low conc.
[7] = Table 11, in gel formulation, as applied compound (CBD or intact prodrug)
[8] = Table 12, in gel formulation, as applied compound (CBD or intact prodrug)
[9] = Table 13, in propylene glycol, as applied compound (CBD or intact prodrug)
[10] = Table 14, in propylene glycol, as applied compound (CBD or intact prodrug)

## C=C(C)[C@@H]1CCC(C)=C[C@H]1c1c(O)cc(CCCCC)cc1O [cannabidiol, reference compound]
Table 2, in propylene glycol
  24 h cumulative amt: 222.7 ± 74.0 nmol
  24 h skin conc: 190.8 ± 10.7 µmol/g
  Flux: 10.4 ± 2.0 nmol/cm^2/h
[1]
  24 h cumulative amt: 89.2 ± 15.0 nmol
  24 h skin conc: 223.1 ± 75.3 µmol/g
  Flux: 7.8 ± 1.1 nmol/cm^2/h
[2]
  24 h cumulative amt: 50.1 ± 28.1 nmol
  24 h skin conc: 26.3 ± 14.1 µmol/g
  Flux: 4.5 ± 2.5 nmol/cm^2/h
[3]
  24 h cumulative amt: 110.4 ± 18.9 nmol
  24 h skin conc: 167.6 ± 76.7 µmol/g
  Flux: 8.5 ± 2.4 nmol/cm^2/h
[4]
  24 h cumulative amt: 63.5 ± 47.5 nmol
  24 h skin conc: 112.5 ± 61.8 µmol/g
  Flux: 6.0 ± 3.3 nmol/cm^2/h
[5]
  24 h cumulative amt: 42.4 ± 10.7 nmol
  24 h skin conc: 104.9 ± 51.0 µmol/g
  Flux: 3.9 ± 0.0 nmol/cm^2/h
[6]
  24 h cumulative amt: 56.9 ± 39.4 nmol
  24 h skin conc: 75.3 ± 33.1 µmol/g
  Flux: 5.7 ± 3.5 nmol/cm^2/h
Table 6, in propylene glycol
  24 h cumulative amt: 27.5 ± 32.5 nmol
  24 h skin conc: 49.2 ± 15.2 µmol/g
  Flux: 4.3 ± 2.4 nmol/cm^2/h
Table 7, in propylene glycol
  36 h cumulative amt: 15.7 ± 5.4 nmol
  36 h skin conc.: 44.1 ± 15.5 µmol/g
Table 7, in propylene glycol, 36 h experiment
  Flux: 1.0 ± 0.7 nmol/cm^2/h
Table 8, in gel formulation
  36 h cumulative amt: 52.0 ± 42.7 nmol
  36 h skin conc.: 28.4 ± 8.8 µmol/g
Table 8, in gel formulation, 36 h experiment
  Flux: 2.0 ± 2.3 nmol/cm^2/h
Table 9, in gel formulation
  24 h cumulative amt: 1.9 ± 1.3 nmol
  Flux: 0.10 ± 0.06 nmol/cm^2/h
Table 9, in gel formulation, as applied compound (CBD, or PD = intact prodrug)
  24 h skin conc: 24.6 ± 3.6 µmol/g
Table 10, in propylene glycol
  24 h cumulative amt: 164.5 ± 34.1 nmol
  Flux: 8.0 ± 0.9 nmol/cm^2/h
Table 10, in propylene glycol, as applied compound (CBD, or PD = intact prodrug)
  24 h skin conc: 85.8 ± 24.3 µmol/g
[7]
  24 h cumulative amt: 13.3 ± 2.6 nmol
  24 h skin conc: 29.0 ± 10.2 µmol/g
  Flux: 1.0 ± 0.1 nmol/cm^2/h
[8]
  24 h cumulative amt: 2.9 ± 0.1 nmol
  24 h skin conc: 88.4 ± 36.3 µmol/g
  Flux: 0.24 ± 0.003 nmol/cm^2/h
Table 13, in propylene glycol, 36 h, as applied compound (CBD or intact prodrug)
  Flux: 4.2 ± 0.0 nmol/cm^2/h
[9]
  36 h cumulative amt: 94.5 ± 0.0 nmol
  36 h skin conc.: 39.4 ± 0.0 µmol/g
Table 14, in propylene glycol, 36 h, as applied compound (CBD or intact prodrug)
  Flux: 8.4 ± 2.4 nmol/cm^2/h
[10]
  36 h cumulative amt: 93.6 ± 38.0 nmol
  36 h skin conc.: 92.9 ± 4.8 µmol/g
